Laboratory results published in paper PMC9445589, “Apolipoprotein E mimetic peptide COG1410 combats pandrug-resistant Acinetobacter baumannii” (Frontiers in Microbiology, 2022).
≈ marks a conversion by molar mass, not a printed value. Where “and” joins values, the source holds several entries; their conditions need not be identical. Equal values may be shown once. Read-outs that look alike come from different tables or passages of the source.

Key:
[1] = test system: PDR Acinetobacter baumannii YQ4; experiment: microbe, parasite or virus in culture; format: cell-based
Experimental: Strain stocks were maintained at −80°C in 10% glycerol. Bacteria were streaked on fresh plates before each experiment. Most of them were cultured in LB broth containing 10 g/L NaCl at 37°C, except for Mycobacteria in 7H9 broth and Enterococcus in BHI broth. Porphyromonas gingivalis was cultured in BHI broth supplemented with 1 μg/ml vitamin k1, 5 μg/ml hemin, and 5 mg/ml L-cysteine hydrochloride at 37°C in the anaerobic chamber. The minimal inhibitory concentrations (MICs) of antimicrobials were determined using the microdilution method in the corresponding broth.
The pandrug-resistant A. baumannii YQ4 was collected from the clinical laboratory of the second hospital in Nanjing. The complete genome was sequenced by Nanopore, and the data were deposited in the GenBank with accession number CP053033.

[2] = test system: PDR A. baumannii strain YQ4; experiment: checkerboard synergy, fractional inhibitory concentration (FIC); format: cell-based, Acinetobacter baumannii; details: checkerboard method, 37°C, 20 h, two independent experiments
Pseudomonas aeruginosa = details: cited from earlier work
From the text: (§1) Supplement Table_1.DOCX, table 1: Table S1. Antibacterial effect of ApoE-derived peptides. | column: MIC (μM) || However, the current pipeline of novel antibiotic development is stagnant, which could not keep pace with these evolving pathogens. The pharmaceutical field turns to seek non-conventional anti-infective agents. The antimicrobial peptides (AMPs) have drawn a lot of attention as novel chemotherapeutic candidates because of their unique mechanisms of action (Mahlapuu et al., [2016]). It is known that the sources of AMPs are diverse, ranging from prokaryotes to humans (Zhang and Gallo, [2016]). One of the most promising AMPs is the protein mimetic peptide, which originates from a functional protei ...

Klebsiella pneumoniae = details: cited from earlier work
From the text: (§2) Supplement Table_1.DOCX, table 1: Table S1. Antibacterial effect of ApoE-derived peptides. | column: MIC (μM)

Staphylococcus aureus = details: cited from earlier work
From the text: as §2

Escherichia coli = details: cited from earlier work
From the text: as §1

Acinetobacter baumannii = details: ref (1); cited from earlier work
From the text: as §1

Enterococcus faecium = details: ref (1); cited from earlier work
From the text: as §2

A. baumannii YQ4 [3] = experiment: scanning electron microscopy (SEM) of treated cells; format: cell-based, Acinetobacter baumannii
Experimental: The log-phase culture of A. baumannii YQ4 was prepared as described above, harvested, and washed once with PBS. The pellets were suspended in PBS supplemented with 1 × COG1410 (16 μg/ml) or 1 × polymyxin B (16 μg/ml) and incubated at 37°C for 30 min. The untreated culture was used as a positive control to observe the morphology of the intact cell. […] After washing three times with PBS, the cells were post-fixed in 1% osmium at 4 °C for 1 h. After washing in distilled water for 1 h, the bacteria were dehydrated in the ascending concentrations of ethanol. Finally, these samples were transferred to ThermoFisher Quattro SEM for image collection after tert-butanol freeze-drying and sputter coating.

A. baumannii YQ4 [4] = experiment: Live/Dead BacLight SYTO-9/PI staining, confocal microscopy; format: cell-based, Acinetobacter baumannii
Experimental: The damage to the cytoplasmic membrane was determined as described previously (Farkas et al., [2017]), with the Live/Dead BacLight bacterial viability kit (Invitrogen L7012). The log-phase culture of A. baumannii YQ4 was washed two times and suspended in PBS with the final OD600 of 0.1. […] Then, the cells were stained with 7.5 μM SYTO-9 and 30 μM propidium iodide (PI) in dark for 15 min. In total, 5 μl of culture was spotted on a clean slide coated with a thin layer of 1% agarose. The fluorescence was observed by Olympus FV3000 confocal laser scanning microscope. For SYTO-9, the excitation and emission were 483 and 503 nm, respectively. For PI, the excitation and emission were 493 and 636 nm, respectively.

A. baumannii YQ4 [5] = experiment: ATP leak assay; format: cell-based, Acinetobacter baumannii; details: 16 μg/ml COG1410, 16 μg/ml polymyxin B or 32 μg/ml tigecycline (1× MIC), PBS, 37°C, 30 min
Experimental: ATP leak assay was performed using the Enhanced ATP Assay Kit of Beyotime ([…]) according to the manufacturer's manual. […] The supernatant was harvested and used for the measurement of ATP levels. In total, 100 μl of supernatant was mixed with 100 μl of working solution, and the chemiluminescence was measured by using a Biotek Synergy H1 plate reader. The untreated sample was set as a negative control. The experiments were performed in triplicate.

A. baumanii YQ4 = experiment: induction of resistance through serial passage; details: sub-MIC exposure, 55 passages
A. baumannii YQ4 [6] = experiment: transmission electron microscopy (TEM) of treated cells
A. baumannii = details: ref De Breij et al., [2018], cited from earlier work
Experimental: The major challenge for the therapeutic application of AMP is the degradation or inactivation in plasma (Dijksteel et al., [2021]). The bactericidal efficacy of COG1410 was further assessed in plasma. The LC99.9 values of COG1410 in PBS and 50% pooled plasma were 1.4 and 5.6 μM, respectively. This was even better than LL-37-derived AMP, SAAP-148, of which the corresponding LC99.9 values were 1.6 and 12.8 μM, against A. baumannii, respectively (De Breij et al., [2018]).

[7] = Acinetobacter baumannii, Table 2, agent alone, PDR A. baumannii strain YQ4, unit not in the table, μg/ml, read-out: MIC

Molecule: CC(C)(O/N=C(\C(=O)N[C@@H]1C(=O)N2C(C(=O)[O-])=C(C[n+]3ccccc3)CS[C@H]12)c1csc(N)n1)C(=O)O [CAZ, ceftazidime]
- MIC ([1]; Acinetobacter baumannii): 512 µg/mL (≈ 937 µM)
- FIC with COG1410 [2]: 0.31

Molecule: LRVRLASHLRKLRKRLLR [sApoE133-150, ApoE-derived peptide, location 133-150]
- MIC, Pa (Pseudomonas aeruginosa; ref (5)): 25/50
- MIC, Kp (Klebsiella pneumoniae; ref (5)): 6.25 µM
- MIC, Sa (Staphylococcus aureus; ref (5)): 3.12 µM

Molecule: CN(C)c1cc(NC(=O)CNC(C)(C)C)c(O)c2c1C[C@H]1C[C@H]3[C@H](N(C)C)C(O)=C(C(N)=O)C(=O)[C@@]3(O)C(O)=C1C2=O [TGC, tigecycline]
- MIC [1, 7]: 32 µg/mL (≈ 54.6 µM)
- FIC with COG1410 [2]: 1.06

Molecule: C[C@@H](O)[C@H]1C(=O)N2C(C(=O)O)=C(S[C@@H]3CN[C@H](C(=O)N(C)C)C3)[C@H](C)[C@H]12 [MERO, meropenem]
- MIC [1, 7]: 32 µg/mL (≈ 83.4 µM)
- FIC with COG1410 [2]: 0.56

Molecule: NCC[C@H](O)C(=O)N[C@@H]1C[C@H](N)[C@@H](O[C@H]2O[C@H](CN)[C@@H](O)[C@H](O)[C@H]2O)[C@H](O)[C@H]1O[C@H]1O[C@H](CO)[C@@H](O)[C@H](N)[C@H]1O [AMI, amikacin]
- MIC [1, 7]: > 1020 µg/mL
- FIC with COG1410 [2]: >1

Molecule: LRVRLASHLRKLRKRLLRDADDLQKRLAVY [ApoE30, ApoE-derived peptide, location 133-162]
- MIC, Ec (Escherichia coli; ref (2)): 1.3 µM
- MIC, Pa (Pseudomonas aeruginosa; ref (2)): 8.1 µM
- MIC, Sa (Staphylococcus aureus; ref (2)): 16.2 µM

Molecule: LRKLRKRLVRLASHLRKLRKRLL [ApoE23, ApoE-derived peptide, locations 141-148+135-149]
- MIC, Ab (Acinetobacter baumannii): 2 µM and 2.0 µM
- MIC, Ec (Escherichia coli; ref (1)): 2.0 µM
- MIC, Pa (Pseudomonas aeruginosa; ref (1)): 2.7 µM
- MIC, Ef (Enterococcus faecium): void (“void” indicates that the MIC is more than 100 μM)
- MIC, Sa (Staphylococcus aureus; ref (1)): 5.4 µM

Molecule: LRKLRKRLLLRKLRKRLL [ApoEp, ApoE-derived peptide, locations 141-149+141-149]
- MIC, Pa (Pseudomonas aeruginosa; ref (1, 3)): 5 µM
- MIC, Sa (Staphylococcus aureus; ref (1, 3)): 35 µM

Molecule: polymyxin B [reference compound]
- cell morphology by SEM (A. baumannii YQ4 [3]): cell lysis and release of cell contents
- SYTO-9/PI staining of treated cells (A. baumannii YQ4 [4]): red fluorescence
- ATP leak (extracellular ATP) (A. baumannii YQ4 [5]): released more ATP compared to untreated cells
- increase of MIC after serial passage (A. baumanii YQ4): 64 fold
- cell membrane integrity by TEM (A. baumannii YQ4 [6]): collapse of cell walls in most of the cells

Molecule: gentamycin [GM]
- MIC ([1]; Table 2, agent alone, PDR A. baumannii strain YQ4, unit not in the table, μg/ml): >1,024 μg/ml
- FIC with COG1410 [2]: >1

Molecule: SAAP-148
- LC99.9 (A. baumannii; 50% pooled plasma): 12.8 µM
- LC99.9 (A. baumannii; PBS): 1.6 µM

Molecule: O=C(O)c1cn(C2CC2)c2cc(N3CCNCC3)c(F)cc2c1=O [CIP, ciprofloxacin]
- MIC ([1]; Acinetobacter baumannii): 256 µg/mL (≈ 773 µM)
- FIC with COG1410 [2]: 0.8

Molecule: LRKLRKRLL [ApoE141-149, ApoE-derived peptide, location 141-149]
- MIC, Pa (Pseudomonas aeruginosa; ref (3)): 30 µM
- MIC, Sa (Staphylococcus aureus; ref (3)): void (“void” indicates that the MIC is more than 100 μM)

Molecule: LRVRLASHLRKLRKRLL [COG133, ApoE-derived peptide, 133–149 of ApoE]
- MIC, Pa (Pseudomonas aeruginosa; ref (5)): 25/50
- MIC, Kp (Klebsiella pneumoniae; ref (5)): 3.12 µM
- MIC, Sa (Staphylococcus aureus; ref (5)): void (“void” indicates that the MIC is more than 100 μM)

Molecule: ApoE130−162: fragment containing the receptor-binding domain of ApoE (130–162) (TEELRVRLASHLRKLRKRLLRDADDLQKRLAVY; UniProt P02649 148-180, looked up, fragment)
- antibacterial activity, in words (Escherichia coli; ref Azuma et al., [2000]): active
- antibacterial activity, in words (Pseudomonas aeruginosa; compared with Escherichia coli, ref Azuma et al., [2000]): to a lesser extent

Molecule: CN(C)[C@@H]1C(O)=C(C(N)=O)C(=O)[C@@]2(O)C(O)=C3C(=O)c4c(O)cccc4[C@@](C)(O)[C@H]3C[C@@H]12 [TET, tetracycline]
- MIC [1, 7]: 1020 µg/mL (≈ 2300 µM)
- FIC with COG1410 [2]: 0.31

Molecule: WRKWRKRWWWRKWRKRWW [ApoEp-W, ApoE-derived peptide, locations 141-149+141-149]
- MIC, Kp (Klebsiella pneumoniae; ref (4)): <3.3 µM
- MIC, Sa (Staphylococcus aureus; ref (4)): <3.3 µM
